Reference: patent publication US5830994A, “Peptide derivatives of alpha-MSH and their application” (Institut Europeen De Biologie Cellulaire, priority 1993, dated 1998)

Legend:
[1] = tested on: DNFB contact hypersensitivity; assay: Dinitrofluorobenzene (DNFB) contact hypersensitivity test, ear thickening after topical application; format: in vivo, C57 BL/6JICO mice; settings: Example 13
Source text: Study of the Anti-allergic activity of the Peptide compounds, by the Dinitrofluorobenzene (DNFB) contact Hypersensitivity test.
Female C57 BL/6JICO mice 5 weeks old are separated into ten batches of ten animals (five per cage), with free access to water and food, subjected to a photoperiod of twelve hours of light per twenty-four hours.
The animals in batches 1 to 6 receive daily and per topical application on the shaved skin of the back, the products to be studied, dissolved in propylene glycol, in a constant volume of 50 μl and for five consecutive days.
PIII--Batches 1 - 2 - 3--2.5 μg --0.5 μg--0.1 μg--mouse/day
PIV--Batches 4 - 5 - 6 - 2.5μg--0.5 μg--0.1 μg--mouse/day
The animals of the X batch serve as controls (and receive only, 50 μl of propylene glycol per topical application for five days).
On the fifth day, thirty minutes after the last application, all the mice are sensitized with 25 μl of DNFB (2.4-Dinitro-1-FluoroBenzene (FLUKA CHEMIKA PURUM at 97% batch No. 33820890) at 2% in a 4 to 1 mixture of acetone (SDS ref. 0510) and triolein (FLUKA) applied topically over the dorsal region of shaved skin.
On the sixth day, a new sensitization is carried out by application of DNFB.
On the eleventh day, the thickness of the ears of the mice is measured with the aid of a micrometer (ROCH 0 to 25 mm in 1/100 mm) in order to obtain base values, then the ears are stimulated by topical application of 20 μl of DNFB at 0.8%.
On the twelfth day, the thickness of the ears is again measured. The mean value of thickening of the ears is established for the mice in the batches which had received the products to be studied, as well as for the mice in the control batch.
The percentage of suppression where appropriate will be expressed by the following calculation: [formula]
Comparative study of the activity of Lipoyl-Peptides and of their peptide structures on DNFB contact hypersensitivity.
The method used is that described above in Example 10.
Contact hypersensitivity induced in mice by Dinitrofluorobenzene--"DNBF"
Batch I: (DL) - Lip - Glu - His - D.homoPhe - Arg - Trp - Gly - NH2
Batch II: H - Glu - His - D.homoPhe - Arg - Trp - Gly - NH2
Batch III: Control=(DL) - Lipoic Acid
Solvent: propylene Glycol previously used as control in Example 10.
Control: dose used"DL-Lipoic-Acid"=10 ng per mouse and per day.
On the fifth day, thirty minutes after the last application, all the mice were sensitized with 25 μl of DNFB (2.4-Dinitro-1-FluoroBenzene (FLUKA CHEMIKA PURUM at 97% batch No. 33820890) at 2% in a 4 to 1 mixture of acetone (SDS ref. 05510) and triolein (FLUKA) applied topically over the dorsal region of shaved skin.
On the twelfth day, the thickness of the ears is again measured. The mean value of thickening of the ears is established for the mice in the batches which had received the products to be studied, as well as for the mice in the control batch. The percentage of suppression where appropriate will be expressed by the following calculation: [formula]

cultured embryonic cells = assay: Effects of Peptides PI and PIV on cultured embryonic cells in vitro (melanocytes, neurons, muscular cells, fibroblasts); format: cell-based
Description: Effects of Peptides PI and PIV on cultured embryonic cells in vitro . . . "Melanocytes - Neurons - Muscular Cells and Fibroblasts . . . " dose used 1 μg/ml (defined by dose/response trials)
1 single treatment during the innoculation of the cells or several successive treatments (renewal of the medium every 48 hours) duration of culture: 6 to 8 days
1) Counting of the melanocytes
2) Assay of melanin by HPLC and/or by spectrophotometry
Daily observation of the cultures
Ultrastructure by transmission electron microscopy.

Molecule: O=C(O)CCCCC1CCSS1 (stereo not drawn) [Lipoic acid, (DL) - Lipoic Acid, reference compound]
- suppressive effect of cutaneous hypersensitivity (in words) ([1]; 10 ng per mouse and per day, in solution in Propylene Glycol): No suppressive effect

Molecule: [(DL) Lip] Glu - His - D.homoPhe - Arg - Trp - Gly - NH2 [PI]
- % SUPPRESSION RELATIVE TO THE CONTROL BATCH, Left Ear ([1]; 1 ng/mouse/day): -75.40%
- % SUPPRESSION RELATIVE TO THE CONTROL BATCH, Right Ear ([1]; 1 ng/mouse/day): -75.58%
- LEFT EAR MEAN % INCREASE ([1]; 1 ng/mouse/day): 13.86%
- RIGHT EAR MEAN % INCREASE ([1]; 1 ng/mouse/day): 13.86%
- % SUPPRESSION RELATIVE TO THE CONTROL BATCH, Left Ear ([1]; 10 ng/mouse/day): -77.01%
- % SUPPRESSION RELATIVE TO THE CONTROL BATCH, Right Ear ([1]; 10 ng/mouse/day): -76.90%
- LEFT EAR MEAN % INCREASE ([1]; 10 ng/mouse/day): 12.95%
- RIGHT EAR MEAN % INCREASE ([1]; 10 ng/mouse/day): 13.01%
- % SUPPRESSION RELATIVE TO THE CONTROL BATCH, Left Ear ([1]; 100 ng/mouse/day): -79.30%
- % SUPPRESSION RELATIVE TO THE CONTROL BATCH, Right Ear ([1]; 100 ng/mouse/day): -79.45%
- LEFT EAR MEAN % INCREASE ([1]; 100 ng/mouse/day): 11.66%
- RIGHT EAR MEAN % INCREASE ([1]; 100 ng/mouse/day): 11.66%
- suppression of cutaneous hypersensitivity ([1]; 100 ng/mouse/day): 79%
- effect on precursor embryonic cells not yet determined in the melanoblastic pathway (in words) (cultured embryonic cells; 1 μg/ml): no effect
- effect on the melanoblasts already induced (in words) (cultured embryonic cells; 1 μg/ml): stimulating effect
- number of melanocytes increases by a factor (cultured embryonic cells; 1 μg/ml): ≥ 2
- toxic effect on astroglial cells (in words) (cultured embryonic cells; 1 μg/ml): No toxic effect
- toxic effect on fibroblasts, mesenchyme (in words) (cultured embryonic cells; 1 μg/ml): no toxic effect
- quantity of biosynthesized melanin per cell (cultured embryonic cells; 1 μg/ml, after eight days of culture): 1.4 ng/cell
- toxic effect on myoblasts (in words) (cultured embryonic cells; 1 μg/ml, even at an ultrastructural level): no toxic effect
- effect on melanogenesis, summary (in words) (cultured embryonic cells; qualitative and quantitative): stimulate melanogenesis
- cytotoxic effect on the various cell categories (in words) (cultured embryonic cells; summary): no cytotoxic effect
- stimulating effect on the other cell types: neurons, astrocytes, muscle cells, fibroblasts (in words) (cultured embryonic cells; summary): without stimulating effect
